From paper PMC12209990, “Effect of Cytochrome P450 3A Inhibition and Induction by Itraconazole and Rifampin on Tazemetostat Pharmacokinetics in Patients With Advanced Malignancies” (Clinical Pharmacology in Drug Development, 2025)
Read-outs that look alike come from different tables or passages of the source. Marks after values point to notes of the source that are not given here.

Assay: Phase I DDI study Part 1: tazemetostat plasma PK alone and with itraconazole (noncompartmental analysis)
Type: in vivo, human
Settings: for AUC / AUC(0-t) / Cmax / half-life / Tmax: human; for Tmax: read-out: tmax, median (range)
Text: This was a Phase I, multicenter, open‐label, 2‐part study encompassing a fixed‐sequence design that aimed to characterize the PK of tazemetostat when administered as single and twice‐daily oral doses alone or in combination with either itraconazole (Part 1) or rifampin (Part 2). Secondary objectives were to evaluate the safety profile of tazemetostat when coadministered with either itraconazole (Part 1) or rifampin (Part 2).
Part 1 of the study evaluated the DDI between tazemetostat and itraconazole. On the mornings of Days 1 and 15, patients received a single dose of tazemetostat 400 mg orally. On Days 3‐14, patients received tazemetostat 400 mg twice daily (morning and evening). On Days 18‐20, patients received itraconazole 200 mg orally once daily in the morning. On Days 21‐35, tazemetostat 400 mg twice daily was coadministered in the morning with a single dose of itraconazole 200 mg. On Day 36, patients received a single dose of tazemetostat 400 mg coadministered in the morning with a single dose of itraconazole 200 mg. On Days 37 and 38, patients received a single dose of itraconazole 200 mg (Figure 1A). Throughout Part 1, administration of itraconazole occurred 1 hour after a meal.
In Part 1, plasma concentrations of tazemetostat following tazemetostat dosing on Days 1, 15, 21, and 36 were quantified for PK analyses before dosing (0 hour), and at 0.5, 1, 1.5, 2, 4, 6, 8, 12, 24 (Days 21‐22), 36, 48 (Days 1‐3), and up to 72 hours after dosing (Days 15‐18 and Days 36‐39).
Plasma concentrations of tazemetostat, over the ranges of 1.00‐2000 ng/mL, were quantified by a fully validated liquid chromatography with tandem mass spectrometric detection analytical method. Samples that had no detectable peak or had the calculated concentration <1.00 ng/mL were reported as below the lower limit of quantification. Tazemetostat analysis consisted of protein precipitation extraction and separation using mobile phases of 100 mM ammonium formate/water (1:9 v/v) (mobile phase A) and 100 mM ammonium formate/acetonitrile (1:9 v/v) (mobile phase B). Detection was achieved using an API‐5500 mass spectrometer (AB Sciex) using electrospray ionization (positive‐ion mode) in the multiple reaction monitoring mode. The multiple reaction monitoring mode m/z transitions monitored were […] for tazemetostat and the dwell time was set at 300 milliseconds.
Plasma concentration‐time data for tazemetostat were analyzed by noncompartmental analysis using the validated software program Phoenix WinNonlin Professional Version 8.3 (Certara Inc., Mountain View, CA).

[1] = single doses, Day 21/Day 1, compared with tazemetostat alone
[2] = twice‐daily dosing, steady state, Day 36/Day 15

CCN(c1cc(-c2ccc(CN3CCOCC3)cc2)cc(C(=O)NCc2c(C)cc(C)[nH]c2=O)c1C)C1CCOCC1 [Tazemetostat]
t1/2, GeoMean (CV%) (Part 1, tazemetostat 400 mg single dose with itraconazole 200 mg once daily, Day 21, plasma, estimated over a 12‐hour dosing interval): 2.86 (28.9) ^a hour
AUC (plasma, oral, 400 mg, Part 1, tazemetostat 400 mg twice daily alone, multiple dosing, Day 15, plasma, read-out: AUC0‐12 h, GeoMean (CV%)): 1830 ng·h/mL
AUC (plasma, oral, 400 mg, Part 1, tazemetostat 400 mg twice daily alone, multiple dosing, Day 15, plasma, read-out: AUC0‐12 h, mean (SD)): 1960 ng·h/mL
AUC(0-t) (plasma, oral, 400 mg, Part 1, tazemetostat 400 mg twice daily alone, multiple dosing, Day 15, plasma, read-out: AUClast, GeoMean (CV%)): 2200 ng·h/mL
AUC(0-t) (plasma, oral, 400 mg, Part 1, tazemetostat 400 mg twice daily alone, multiple dosing, Day 15, plasma, read-out: AUClast, mean (SD)): 2340 ng·h/mL
Cmax (plasma, oral, 400 mg, Part 1, tazemetostat 400 mg twice daily alone, multiple dosing, Day 15, plasma, read-out: Cmax, GeoMean (CV%)): 543 ng/mL
Cmax (plasma, oral, 400 mg, Part 1, tazemetostat 400 mg twice daily alone, multiple dosing, Day 15, plasma, read-out: Cmax, mean (SD)): 643 ng/mL
half-life (plasma, oral, 400 mg, Part 1, tazemetostat 400 mg twice daily alone, multiple dosing, Day 15, plasma, read-out: t1/2, GeoMean (CV%) (converted)): 8.01 h
half-life (plasma, oral, 400 mg, Part 1, tazemetostat 400 mg twice daily alone, multiple dosing, Day 15, plasma, read-out: t1/2, mean (SD) (converted)): 8.62 h
Tmax (plasma, oral, 400 mg, Part 1, tazemetostat 400 mg twice daily alone, multiple dosing, Day 15, plasma): 1.27 h
AUC (plasma, oral, Part 1, tazemetostat 400 mg multiple dosing with itraconazole 200 mg once daily, Day 36, plasma, read-out: AUC0‐12 h, mean (SD)): 5160 ng·h/mL
AUC(0-t) (plasma, oral, Part 1, tazemetostat 400 mg multiple dosing with itraconazole 200 mg once daily, Day 36, plasma, read-out: AUClast, GeoMean (CV%)): 5750 ng·h/mL
AUC(0-t) (plasma, oral, Part 1, tazemetostat 400 mg multiple dosing with itraconazole 200 mg once daily, Day 36, plasma, read-out: AUClast, mean (SD)): 6490 ng·h/mL
Cmax (plasma, oral, Part 1, tazemetostat 400 mg multiple dosing with itraconazole 200 mg once daily, Day 36, plasma, read-out: Cmax, GeoMean (CV%)): 1010 ng/mL
Cmax (plasma, oral, Part 1, tazemetostat 400 mg multiple dosing with itraconazole 200 mg once daily, Day 36, plasma, read-out: Cmax, mean (SD)): 1190 ng/mL
half-life (plasma, oral, Part 1, tazemetostat 400 mg multiple dosing with itraconazole 200 mg once daily, Day 36, plasma, read-out: t1/2, GeoMean (CV%) (converted)): 11.9 h
half-life (plasma, oral, Part 1, tazemetostat 400 mg multiple dosing with itraconazole 200 mg once daily, Day 36, plasma, read-out: t1/2, mean (SD) (converted)): 12.9 h
Tmax (plasma, oral, Part 1, tazemetostat 400 mg multiple dosing with itraconazole 200 mg once daily, Day 36, plasma): 1.49 h
half-life (plasma, oral, Part 1, tazemetostat 400 mg single dose with itraconazole 200 mg once daily, Day 21, plasma, estimated over a 12‐hour dosing interval, read-out: t1/2, mean (SD) (converted)): 2.95 h
AUC (plasma, oral, Part 1, tazemetostat 400 mg single dose with itraconazole 200 mg once daily, Day 21, plasma, read-out: AUC0‐12 h, GeoMean (CV%)): 6790 ng·h/mL
AUC (plasma, oral, Part 1, tazemetostat 400 mg single dose with itraconazole 200 mg once daily, Day 21, plasma, read-out: AUC0‐12 h, mean (SD)): 8000 ng·h/mL
AUC(0-t) (plasma, oral, Part 1, tazemetostat 400 mg single dose with itraconazole 200 mg once daily, Day 21, plasma, read-out: AUClast, GeoMean (CV%)): 6720 ng·h/mL
AUC(0-t) (plasma, oral, Part 1, tazemetostat 400 mg single dose with itraconazole 200 mg once daily, Day 21, plasma, read-out: AUClast, mean (SD)): 7930 ng·h/mL
Cmax (plasma, oral, Part 1, tazemetostat 400 mg single dose with itraconazole 200 mg once daily, Day 21, plasma, read-out: Cmax, GeoMean (CV%)): 1400 ng/mL
Cmax (plasma, oral, Part 1, tazemetostat 400 mg single dose with itraconazole 200 mg once daily, Day 21, plasma, read-out: Cmax, mean (SD)): 1640 ng/mL
Tmax (plasma, oral, Part 1, tazemetostat 400 mg single dose with itraconazole 200 mg once daily, Day 21, plasma): 1.53 h
AUC (plasma, po, 400 mg, Part 1, tazemetostat 400 mg oral single dose alone, Day 1, plasma, read-out: AUC0‐12 h, GeoMean (CV%)): 2180 ng·h/mL
AUC (plasma, po, 400 mg, Part 1, tazemetostat 400 mg oral single dose alone, Day 1, plasma, read-out: AUC0‐12 h, mean (SD)): 2460 ng·h/mL
AUC(0-t) (plasma, po, 400 mg, Part 1, tazemetostat 400 mg oral single dose alone, Day 1, plasma, read-out: AUClast, GeoMean (CV%)): 2640 ng·h/mL
AUC(0-t) (plasma, po, 400 mg, Part 1, tazemetostat 400 mg oral single dose alone, Day 1, plasma, read-out: AUClast, mean (SD)): 3250 ng·h/mL
Cmax (plasma, po, 400 mg, Part 1, tazemetostat 400 mg oral single dose alone, Day 1, plasma, read-out: Cmax, GeoMean (CV%)): 704 ng/mL
Cmax (plasma, po, 400 mg, Part 1, tazemetostat 400 mg oral single dose alone, Day 1, plasma, read-out: Cmax, mean (SD)): 803 ng/mL
half-life (plasma, po, 400 mg, Part 1, tazemetostat 400 mg oral single dose alone, Day 1, plasma, read-out: t1/2, GeoMean (CV%) (converted)): 5.97 h
half-life (plasma, po, 400 mg, Part 1, tazemetostat 400 mg oral single dose alone, Day 1, plasma, read-out: t1/2, mean (SD) (converted)): 6.13 h
Tmax (plasma, po, 400 mg, Part 1, tazemetostat 400 mg oral single dose alone, Day 1, plasma): 1.44 h
increase of tazemetostat exposure by itraconazole (overall, single dose and steady state): two to three times
increase of mean AUC0‐12h by itraconazole [1]: 3.12 fold
increase of mean Cmax by itraconazole [1]: 2.00 fold
increase of mean steady‐state AUC0‐12h by itraconazole [2]: 2.47 fold
increase of mean steady‐state Cmax by itraconazole [2]: 1.86 fold
